# In paper PMC5218480 (PLoS ONE, 2017):
# Test system: MV-4-11 cells
# Experiment: Gene expression microarray analysis (Affymetrix PrimeView) and GSEA
# Type: cell-based, human
# Design: RFU PODN (11730768_x_at) / Fold change /veh PODN (11730768_x_at) / RFU LINC00158 (11744669_a_at) / Fold change /veh LINC00158 (11744669_a_at) / RFU DUSP10 (11751237_a_at) / Fold change /veh DUSP10 (11751237_a_at) / RFU ID3 (11757404_x_at) / Fold change /veh ID3 (11757404_x_at) / RFU PLEKHG5 (11737974_s_at) / Fold change /veh PLEKHG5 (11737974_s_at) / RFU LRRC4B (11730491_at) / Fold change /veh LRRC4B (11730491_at) / RFU GIMAP4 (11747438_a_at) / Fold change /veh GIMAP4 (11747438_a_at) / RFU KRT8 (11758183_x_at) / Fold change /veh KRT8 (11758183_x_at) / RFU CNN1 (11734310_a_at) / Fold change /veh CNN1 (11734310_a_at) / RFU VPS37D (11726825_at) / Fold change /veh VPS37D (11726825_at) / RFU C10orf10 (11716522_x_at) / Fold change /veh C10orf10 (11716522_x_at) / RFU KIR2DL2 /// KIR2DL4 /// KIR2DL5A /// KIR2DL5B /// KIR2DS1 /// KIR2DS2 /// KIR2DS3 /// KIR2DS4 /// KIR3DL3 /// KIR3DL3 /// KIR3DS1 (11738374_at) / Fold change /veh KIR2DL2 /// KIR2DL4 /// KIR2DL5A /// KIR2DL5B /// KIR2DS1 /// KIR2DS2 /// KIR2DS3 /// KIR2DS4 /// KIR3DL3 /// KIR3DL3 /// KIR3DS1 (11738374_at) / RFU C1QL1 (11718748_at) / Fold change /veh C1QL1 (11718748_at) / RFU TMPRSS4 (11747572_a_at) / Fold change /veh TMPRSS4 (11747572_a_at) / RFU HAMP (11756126_x_at) / Fold change /veh HAMP (11756126_x_at) / RFU RNFT2 (11725882_a_at) / Fold change /veh RNFT2 (11725882_a_at) / RFU NR4A2 (11747474_a_at) / Fold change /veh NR4A2 (11747474_a_at) / RFU ABCC12 (11746883_a_at) / Fold change /veh ABCC12 (11746883_a_at) / RFU TMEM136 (11760407_x_at) / Fold change /veh TMEM136 (11760407_x_at) / RFU CLDN22 /// WWC2 (11732394_at) / Fold change /veh CLDN22 /// WWC2 (11732394_at) / RFU HLA-DPB1 (11760878_x_at) / Fold change /veh HLA-DPB1 (11760878_x_at) / RFU SPINT1 (11716480_a_at) / Fold change /veh SPINT1 (11716480_a_at) / RFU GAP43 (11754022_s_at) / Fold change /veh GAP43 (11754022_s_at) / RFU A4GNT (11735810_at) / Fold change /veh A4GNT (11735810_at) / RFU PRB3 (11715151_x_at) / Fold change /veh PRB3 (11715151_x_at) / RFU TUBB4B (11761932_at) / Fold change /veh TUBB4B (11761932_at) / RFU CAPN14 (11732068_a_at) / Fold change /veh CAPN14 (11732068_a_at) / RFU TMCC2 (11721928_a_at) / Fold change /veh TMCC2 (11721928_a_at) / RFU IRGQ (11745062_a_at) / Fold change /veh IRGQ (11745062_a_at) / RFU FAM174B (11720279_a_at) / Fold change /veh FAM174B (11720279_a_at) / RFU TMPRSS4 (11748680_a_at) / Fold change /veh TMPRSS4 (11748680_a_at) / RFU FAM212B (11763350_a_at) / Fold change /veh FAM212B (11763350_a_at) / RFU PLEKHG5 (11743358_a_at) / Fold change /veh PLEKHG5 (11743358_a_at) / RFU ZSCAN30 (11745921_a_at) / Fold change /veh ZSCAN30 (11745921_a_at) / RFU CMKLR1 (11741424_a_at) / Fold change /veh CMKLR1 (11741424_a_at) / RFU LOC101060620 /// MAPK8IP1 (11723275_at) / Fold change /veh LOC101060620 /// MAPK8IP1 (11723275_at) / RFU SPTSSB (11747773_x_at) / Fold change /veh SPTSSB (11747773_x_at) / RFU PRSS12 (11739890_at) / Fold change /veh PRSS12 (11739890_at) / RFU BIN1 (11741810_x_at) / Fold change /veh BIN1 (11741810_x_at) / RFU WNT11 (11732464_a_at) / Fold change /veh WNT11 (11732464_a_at) / RFU C10orf10 (11716521_a_at) / Fold change /veh C10orf10 (11716521_a_at) / RFU C5orf56 (11738089_at) / Fold change /veh C5orf56 (11738089_at) / RFU CYB561 (11721691_x_at) / Fold change /veh CYB561 (11721691_x_at) / RFU ANKRD19P (11752326_a_at) / Fold change /veh ANKRD19P (11752326_a_at) / RFU OR2T12 /// OR2T33 /// OR2T8 (11738714_s_at) / Fold change /veh OR2T12 /// OR2T33 /// OR2T8 (11738714_s_at) / RFU VCAN (11748164_a_at) / Fold change /veh VCAN (11748164_a_at) / RFU JSRP1 (11732532_at) / Fold change /veh JSRP1 (11732532_at) / RFU KRTAP10-11 (11738290_x_at) / Fold change /veh KRTAP10-11 (11738290_x_at) / RFU MYO3A (11730013_a_at) / Fold change /veh MYO3A (11730013_a_at) / RFU EBF3 (11725865_a_at) / Fold change /veh EBF3 (11725865_a_at) / RFU CAMK2N1 (11719241_x_at) / Fold change /veh CAMK2N1 (11719241_x_at) / RFU C5orf56 (11738088_a_at) / Fold change /veh C5orf56 (11738088_a_at) / RFU OLFML3 (11715873_a_at) / Fold change /veh OLFML3 (11715873_a_at) / RFU LOC100653217 /// NTM (11731650_a_at) / Fold change /veh LOC100653217 /// NTM (11731650_a_at) / RFU MAPK11 (11762145_a_at) / Fold change /veh MAPK11 (11762145_a_at) / RFU FIZ1 (11724087_x_at) / Fold change /veh FIZ1 (11724087_x_at) / RFU OASL (11726364_x_at) / Fold change /veh OASL (11726364_x_at) / RFU SOX15 (11748057_x_at) / Fold change /veh SOX15 (11748057_x_at) / RFU CD79A (11719716_a_at) / Fold change /veh CD79A (11719716_a_at) / RFU HIST1H1D (11736915_at) / Fold change /veh HIST1H1D (11736915_at) / RFU CASKIN2 (11723855_a_at) / Fold change /veh CASKIN2 (11723855_a_at) / RFU LOC730098 (11760151_x_at) / Fold change /veh LOC730098 (11760151_x_at) / RFU OR4N2 (11742367_at) / Fold change /veh OR4N2 (11742367_at) / RFU PRRT2 (11749266_a_at) / Fold change /veh PRRT2 (11749266_a_at) / RFU SNX32 (11753110_a_at) / Fold change /veh SNX32 (11753110_a_at) / RFU CDHR5 (11726645_a_at) / Fold change /veh CDHR5 (11726645_a_at) / RFU RCAN1 (11760418_a_at) / Fold change /veh RCAN1 (11760418_a_at) / RFU FAM167A (11723789_a_at) / Fold change /veh FAM167A (11723789_a_at) / RFU FAM26E (11764081_at) / Fold change /veh FAM26E (11764081_at) / RFU ISYNA1 (11749810_s_at) / Fold change /veh ISYNA1 (11749810_s_at) / RFU ACY1 (11761880_at) / Fold change /veh ACY1 (11761880_at) / RFU 11764098_at / Fold change /veh 11764098_at / RFU SAMD14 (11745864_x_at) / Fold change /veh SAMD14 (11745864_x_at) / RFU NPB (11741838_a_at) / Fold change /veh NPB (11741838_a_at) / RFU TMPRSS6 (11731388_a_at) / Fold change /veh TMPRSS6 (11731388_a_at) / RFU KRTAP10-2 (11738614_at) / Fold change /veh KRTAP10-2 (11738614_at) / RFU ARHGAP8 /// PRR5-ARHGAP8 (11727945_x_at) / Fold change /veh ARHGAP8 /// PRR5-ARHGAP8 (11727945_x_at) / RFU KRTAP5-7 /// NADSYN1 (11734609_at) / Fold change /veh KRTAP5-7 /// NADSYN1 (11734609_at) / RFU RASL12 (11751679_a_at) / Fold change /veh RASL12 (11751679_a_at) / RFU CDKN2B (11736163_a_at) / Fold change /veh CDKN2B (11736163_a_at) / RFU PRF1 (11729649_at) / Fold change /veh PRF1 (11729649_at) / RFU, ZNF638 /// ZNF638-IT1 / Fold change vs veh, ZNF638 /// ZNF638-IT1 / RFU, PANK3 / Fold change vs veh, PANK3 / RFU, SH3YL1 / Fold change vs veh, SH3YL1 / RFU, ZEB2 / Fold change vs veh, ZEB2 / RFU, NRIP1 / Fold change vs veh, NRIP1 / RFU, PTTG1IP / Fold change vs veh, PTTG1IP / RFU, CAPN2 / Fold change vs veh, CAPN2 / RFU, MED14 / Fold change vs veh, MED14 / RFU, SNORA58 / Fold change vs veh, SNORA58 / RFU, C1orf63 / Fold change vs veh, C1orf63 / RFU, LRRFIP1 / Fold change vs veh, LRRFIP1 / RFU, NDUFAF7 / Fold change vs veh, NDUFAF7 / RFU, SLC12A2 / Fold change vs veh, SLC12A2 / RFU, IBTK / Fold change vs veh, IBTK / RFU, ESF1 / Fold change vs veh, ESF1 / Fold change vs veh, TMEM50B / RFU, TAOK1 / Fold change vs veh, TAOK1 / RFU, ACBD3 / Fold change vs veh, ACBD3 / RFU, TMA16 / Fold change vs veh, TMA16 / RFU, RWDD3 / Fold change vs veh, RWDD3 / RFU, BCAT1 / Fold change vs veh, BCAT1 / RFU, EDEM3 / Fold change vs veh, EDEM3 / RFU, TMEM33 / Fold change vs veh, TMEM33 / RFU, WDR75 / Fold change vs veh, WDR75 / RFU, AHCTF1 / Fold change vs veh, AHCTF1 / RFU, TFRC / Fold change vs veh, TFRC / RFU, ZDHHC17 / Fold change vs veh, ZDHHC17 / RFU, NOM1 / Fold change vs veh, NOM1 / RFU, ARL8B / Fold change vs veh, ARL8B / RFU, ZBTB11 / Fold change vs veh, ZBTB11 / RFU, TAMM41 / Fold change vs veh, TAMM41 / RFU, KIAA1704 /// LOC100996395 / Fold change vs veh, KIAA1704 /// LOC100996395 / RFU, ING1 / Fold change vs veh, ING1 / RFU, TRMT61B / Fold change vs veh, TRMT61B / RFU, FUBP3 / Fold change vs veh, FUBP3 / RFU, TP53 / Fold change vs veh, TP53 / RFU, TNKS2 / Fold change vs veh, TNKS2 / RFU, ZFP14 / Fold change vs veh, ZFP14 / RFU, ACTR2 / Fold change vs veh, ACTR2 / RFU, PPP3R1 / Fold change vs veh, PPP3R1 / RFU, PIK3R1 / Fold change vs veh, PIK3R1 / RFU, HNRNPA1 / Fold change vs veh, HNRNPA1 / RFU, RNF170 / Fold change vs veh, RNF170 / RFU, ZNF28 / Fold change vs veh, ZNF28 / RFU, RNGTT / Fold change vs veh, RNGTT / RFU, OGT / Fold change vs veh, OGT / RFU, BRD1 / Fold change vs veh, BRD1 / RFU, MARS / Fold change vs veh, MARS / RFU, ZNF655 / Fold change vs veh, ZNF655 / RFU, FAHD1 / Fold change vs veh, FAHD1 / RFU, BDP1 / Fold change vs veh, BDP1 / RFU, LRRCC1 / Fold change vs veh, LRRCC1 / RFU, ARID1A / Fold change vs veh, ARID1A / RFU, ZNF146 / Fold change vs veh, ZNF146 / RFU, ZNF330 / Fold change vs veh, ZNF330 / RFU, GPN3 / Fold change vs veh, GPN3 / RFU, C9orf123 / Fold change vs veh, C9orf123 / RFU, N4BP2L2 / Fold change vs veh, N4BP2L2 / RFU, ARFIP1 / Fold change vs veh, ARFIP1 / RFU, FAM179B / Fold change vs veh, FAM179B / RFU, BCL10 / Fold change vs veh, BCL10 / RFU, UHRF1BP1L / Fold change vs veh, UHRF1BP1L / RFU, BET1 / Fold change vs veh, BET1 / RFU, CNOT2 / Fold change vs veh, CNOT2 / RFU, ZNF268 / Fold change vs veh, ZNF268 / Fold change vs veh, ZNF507 / RFU, DGCR2 / Fold change vs veh, DGCR2 / RFU, WDSUB1 / Fold change vs veh, WDSUB1 / Fold change vs veh, HSP90B1 /// MIR3652 / RFU, ADSS / Fold change vs veh, ADSS / RFU, GK / Fold change vs veh, GK / RFU, ZNF148 / Fold change vs veh, ZNF148 / RFU, TAF9 / Fold change vs veh, TAF9 / RFU, SLC1A5 / Fold change vs veh, SLC1A5 / RFU, SLMO2 / Fold change vs veh, SLMO2 / RFU, ABCC4 / Fold change vs veh, ABCC4 / RFU, LOC101060439 /// RAP1B / Fold change vs veh, LOC101060439 /// RAP1B / RFU, RFX7 / Fold change vs veh, RFX7 / RFU, GTPBP10 / Fold change vs veh, GTPBP10 / RFU, CNEP1R1 / Fold change vs veh, CNEP1R1 / RFU, BIVM-ERCC5 /// ERCC5 / Fold change vs veh, BIVM-ERCC5 /// ERCC5 / RFU, ILF3 / Fold change vs veh, ILF3 / RFU 11762660_at / Fold change /veh 11762660_at / RFU VCAN (11757783_s_at) / Fold change /veh VCAN (11757783_s_at) / RFU DDX43 (11728927_at) / Fold change /veh DDX43 (11728927_at) / RFU KRT8 (11758188_x_at) / Fold change /veh KRT8 (11758188_x_at) / RFU NKD1 (11759106_at) / Fold change /veh NKD1 (11759106_at) / RFU SRD5A1 (11742802_a_at) / Fold change /veh SRD5A1 (11742802_a_at) / RFU TPSAB1 /// TPSB2 (11721975_s_at) / Fold change /veh TPSAB1 /// TPSB2 (11721975_s_at) / RFU GSTM3 (11746129_a_at) / Fold change /veh GSTM3 (11746129_a_at) / RFU IL23R (11737362_x_at) / Fold change /veh IL23R (11737362_x_at) / RFU TMEM51 (11727254_a_at) / Fold change /veh TMEM51 (11727254_a_at) / RFU PIWIL2 (11732686_x_at) / Fold change /veh PIWIL2 (11732686_x_at) / RFU ORM1 (11744905_x_at) / Fold change /veh ORM1 (11744905_x_at) / RFU CCDC152 (11743942_at) / Fold change /veh CCDC152 (11743942_at) / RFU ECM1 (11717891_a_at) / Fold change /veh ECM1 (11717891_a_at) / RFU IL23R (11748794_a_at) / Fold change /veh IL23R (11748794_a_at) / RFU TNFAIP8L3 (11732012_x_at) / Fold change /veh TNFAIP8L3 (11732012_x_at) / RFU MBOAT4 (11741988_at) / Fold change /veh MBOAT4 (11741988_at) / RFU 11764193_at / Fold change /veh 11764193_at / RFU TMEM53 (11763286_at) / Fold change /veh TMEM53 (11763286_at) / RFU MAGEB2 (11727129_at) / Fold change /veh MAGEB2 (11727129_at) / RFU TMEM200A (11744735_a_at) / Fold change /veh TMEM200A (11744735_a_at) / RFU CCDC152 (11751479_a_at) / Fold change /veh CCDC152 (11751479_a_at) / RFU FAM211A (11726209_a_at) / Fold change /veh FAM211A (11726209_a_at) / RFU RGS16 (11746705_a_at) / Fold change /veh RGS16 (11746705_a_at) / RFU VCAN (11755009_s_at) / Fold change /veh VCAN (11755009_s_at) / RFU RHOB (11743442_s_at) / Fold change /veh RHOB (11743442_s_at) / RFU RGS16 (11720943_a_at) / Fold change /veh RGS16 (11720943_a_at) / RFU RGS16 (11720944_at) / Fold change /veh RGS16 (11720944_at) / RFU, VPS4B / Fold change vs veh, VPS4B / RFU, CREB1 / Fold change vs veh, CREB1 / RFU, DNAJC13 / Fold change vs veh, DNAJC13 / RFU, GNAQ / Fold change vs veh, GNAQ / RFU, CDK5R1 / Fold change vs veh, CDK5R1 / RFU, ZRANB3 / Fold change vs veh, ZRANB3 / RFU, CUL4A / Fold change vs veh, CUL4A / RFU, CCNY / Fold change vs veh, CCNY / RFU, UFL1 / Fold change vs veh, UFL1 / RFU, COG3 / Fold change vs veh, COG3 / RFU, DIAPH2 / Fold change vs veh, DIAPH2 / RFU, SKA2 / Fold change vs veh, SKA2 / RFU, AFF3 / Fold change vs veh, AFF3 / RFU, LMF1 / Fold change vs veh, LMF1 / RFU, IPO11 / Fold change vs veh, IPO11 / RFU, DFFB / Fold change vs veh, DFFB / RFU, FOXP1 / Fold change vs veh, FOXP1 / RFU, CARD8 / Fold change vs veh, CARD8 / RFU, STRN3 / Fold change vs veh, STRN3 / RFU, ADK / Fold change vs veh, ADK / RFU, RASSF2 / Fold change vs veh, RASSF2 / RFU, WIPF1 / Fold change vs veh, WIPF1 / RFU, LARP1B / Fold change vs veh, LARP1B / RFU, RASA1 / Fold change vs veh, RASA1 / RFU, RB1 / Fold change vs veh, RB1 / RFU, PPFIA1 / Fold change vs veh, PPFIA1 / RFU, MAT2A / Fold change vs veh, MAT2A / RFU, CCT5 / Fold change vs veh, CCT5 / RFU, WDR92 / Fold change vs veh, WDR92 / RFU, CUX1 / Fold change vs veh, CUX1 / RFU, TTC7A / Fold change vs veh, TTC7A / RFU, TMEM135 / Fold change vs veh, TMEM135 / RFU, DEPTOR / Fold change vs veh, DEPTOR / RFU, CPM / Fold change vs veh, CPM / RFU, DNAJB6 / Fold change vs veh, DNAJB6 / RFU, CACNA2D3 / Fold change vs veh, CACNA2D3 / RFU, DTX4 / Fold change vs veh, DTX4 / RFU, TFCP2 / Fold change vs veh, TFCP2 / RFU, GMCL1 /// GMCL1P1 / Fold change vs veh, GMCL1 /// GMCL1P1 / RFU, AEBP2 / Fold change vs veh, AEBP2 / RFU, SNHG1 /// SNORD22 /// SNORD25 /// SNORD26 /// SNORD27 /// SNORD28 /// SNORD29 /// SNORD31 / Fold change vs veh, SNHG1 /// SNORD22 /// SNORD25 /// SNORD26 /// SNORD27 /// SNORD28 /// SNORD29 /// SNORD31 / Fold change (Aza/veh), C12orf56 (ProbeSet 11735607_a_at) / Fold change (ACY-1035/veh), C12orf56 (ProbeSet 11735607_a_at) / Fold change (Aza/veh), FGFR1OP (ProbeSet 11751329_s_at) / Fold change (ACY-1035/veh), FGFR1OP (ProbeSet 11751329_s_at) / Fold change (Aza/veh), VPS36 (ProbeSet 11739960_a_at) / Fold change (ACY-1035/veh), VPS36 (ProbeSet 11739960_a_at) / RFU SYPL1 (11715823_x_at) / Fold change /veh SYPL1 (11715823_x_at) / RFU IGFBP7 (11715501_s_at) / Fold change /veh IGFBP7 (11715501_s_at) / RFU REEP3 (11722064_at) / Fold change /veh REEP3 (11722064_at) / RFU IGLL1 (11728026_x_at) / Fold change /veh IGLL1 (11728026_x_at): dose or concentration left out as unconfirmed
# Details: MV-4-11 cells, 48 hours
structure (smiles),measurement,value
Nc1ncn([C@@H]2O[C@H](CO)[C@@H](O)[C@H]2O)c(=O)n1 [azacitidine],RFU FAM26E (11764081_at),5.32 RFU
